According to ChEMBL document CHEMBL1155460, “Prediction of acetylcholinesterase inhibitors and characterization of correlative molecular descriptors by machine learning methods” (Eur J Med Chem, 2010):

Each molecule was assayed against Acetylcholinesterase (Homo sapiens, UniProt P22303).
Sequence of Acetylcholinesterase (P22303 whole entry): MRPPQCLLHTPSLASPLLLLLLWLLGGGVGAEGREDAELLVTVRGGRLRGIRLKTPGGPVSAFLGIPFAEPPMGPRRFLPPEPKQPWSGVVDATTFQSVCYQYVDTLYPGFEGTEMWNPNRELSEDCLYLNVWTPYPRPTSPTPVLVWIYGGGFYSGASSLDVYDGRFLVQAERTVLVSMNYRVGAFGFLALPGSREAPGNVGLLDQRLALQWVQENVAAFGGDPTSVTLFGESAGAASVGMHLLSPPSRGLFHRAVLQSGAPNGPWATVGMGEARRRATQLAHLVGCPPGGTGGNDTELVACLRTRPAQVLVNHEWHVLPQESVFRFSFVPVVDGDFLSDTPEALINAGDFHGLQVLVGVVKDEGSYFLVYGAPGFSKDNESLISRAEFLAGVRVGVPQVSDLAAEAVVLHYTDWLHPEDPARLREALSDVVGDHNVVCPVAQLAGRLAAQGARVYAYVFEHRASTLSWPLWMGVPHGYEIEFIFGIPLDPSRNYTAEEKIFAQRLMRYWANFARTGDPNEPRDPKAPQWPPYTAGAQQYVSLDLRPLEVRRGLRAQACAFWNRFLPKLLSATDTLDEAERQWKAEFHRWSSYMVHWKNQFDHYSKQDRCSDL
Work on `O=C(CCC1CCN(Cc2cccc(F)c2)CC1)c1ccc2c(c1)NCCCC2` yielded an IC50 of 145 nM. In the case of `CCCCCCNC(=O)Oc1cccc(CN(C)CCCOc2ccc3ccc(=O)oc3c2)c1`, the IC50 is reported as 13 nM. `CCCCNC(=O)Oc1cccc(CN(C)CCCOc2ccc3c(=O)ccoc3c2)c1` showed an IC50 of 250 nM. For `Nc1c2c(nc3ccccc13)CCCCC2`, the IC50 was 39 nM. Work on `COc1ccc2c(c1)CCCc1c-2nc2ccccc2c1N` yielded an IC50 of 68800 nM. Work on `Fc1ccc2c(NCCCCCCNc3c4c(nc5cc(F)ccc35)CCCC4)c3c(nc2c1)CCCC3` yielded an IC50 of 0.9 nM. Molecule `c1ccc(CN2CCC(CCN=c3[nH]nc(-c4ccccc4)c4ccccc34)CC2)cc1` has an IC50 of 440 nM. `c1ccc2c(NCCCCCCNc3c4c(nc5ccccc35)CCCC4)c3c(nc2c1)CCCC3` showed an IC50 of 1.4 nM. Molecule `O=C1c2cccnc2C(=O)N1CCC1CCN(Cc2ccccc2)CC1` has an IC50 of 13 nM. Work on `CCCCCCCNC(=O)Oc1ccc2c(c1)[C@@H]1CCN(CC)[C@@H]1C2` yielded an IC50 of 381 nM. Work on `O=C1c2cccc([N+](=O)[O-])c2C(=O)N1CCC1CCN(Cc2ccccc2)CC1` yielded an IC50 of 9 nM. For `NCCCCCCCCNc1c2c(nc3ccccc13)CCCC2`, the IC50 was 89 nM. Work on `O=c1[nH]c2cc(Cl)ccc2c(=O)n1CCC1CCN(Cc2ccccc2)CC1` yielded an IC50 of 4.5 nM. In the case of `CCCc1cc(=NCCC2CCN(Cc3ccccc3)CC2)[nH]nc1-c1ccccc1`, the IC50 is reported as 61 nM. In the case of `O=C(CCC1CCN(Cc2ccccc2)CC1)c1ccc2c(c1)N(Cc1ccccc1)CCCC2`, the IC50 is reported as 3140 nM. With `c1ccc(-c2ccc(NCCN3CCc4ccccc4C3)nn2)cc1` the IC50 was 83000 nM. With `O=C1Cc2ccccc2C(=O)N1CCC1CCN(Cc2ccccc2)CC1` the IC50 was 23 nM. In the case of `Cc1cc(-c2ccccc2)nnc1NCCC1CCN(Cc2ccccc2)CC1`, the IC50 is reported as 320 nM.
